Results from US20240018110A1, “RADIOLABELED COMPOUNDS TARGETING THE PROSTATE-SPECIFIC MEMBRANE ANTIGEN” (THE UNIVERSITY OF BRITISH COLUMBIA, priority 2020, published 2024).

Columns and labels:
PSMA = PSMA (Homo sapiens, UniProt Q04609); experiment: In vitro competitive binding assay
LNCaP xenograft = experiment: Biodistribution of 68Ga-labeled compounds in mice bearing LNCaP xenograft; assay type: in vivo; conditions: 1 h p.i.
Experimental: All chemicals and solvents were obtained from commercial sources, and used without further purification. PSMA-targeted peptides were synthesized using a solid phase approach on an AAPPTec (Louisville, KY) Endeavor 90 peptide synthesizer. Purification of peptides was performed on an Agilent 1260 Infinity II Preparative System equipped with a model 1260 Infinity II preparative binary pump, a model 1260 Infinity variable wavelength detector (set at 220 nm), and a 1290 Infinity II preparative open-bed fraction collector. The HPLC column used was a preparative column (Gemini, NX—C18, 5 μ, 50×30 mm) purchased from Phenomenex. The collected HPLC eluates containing the desired peptide were lyophilized using a Labconco (Kansas City, MO) FreeZone 4.5 Plus freeze-drier. Mass analyses were performed using a Waters LC-MS system with an ESI ion source. C18 Sep-Pak cartridges (1 cm^3, 50 mg) were obtained from Waters (Milford, MA). ^68Ga was eluted from an iThemba Labs (Somerset West, South Africa) generator. Radioactivity of ^68Ga-labeled peptides was measured using a Capintec (Ramsey, NJ) CRC®-25R/W dose calibrator, and the radioactivity of mouse tissues collected from biodistribution studies were counted using a Perkin Elmer (Waltham, MA) Wizard2 2480 automatic gamma counter.

Sequence of PSMA (Q04609 whole entry): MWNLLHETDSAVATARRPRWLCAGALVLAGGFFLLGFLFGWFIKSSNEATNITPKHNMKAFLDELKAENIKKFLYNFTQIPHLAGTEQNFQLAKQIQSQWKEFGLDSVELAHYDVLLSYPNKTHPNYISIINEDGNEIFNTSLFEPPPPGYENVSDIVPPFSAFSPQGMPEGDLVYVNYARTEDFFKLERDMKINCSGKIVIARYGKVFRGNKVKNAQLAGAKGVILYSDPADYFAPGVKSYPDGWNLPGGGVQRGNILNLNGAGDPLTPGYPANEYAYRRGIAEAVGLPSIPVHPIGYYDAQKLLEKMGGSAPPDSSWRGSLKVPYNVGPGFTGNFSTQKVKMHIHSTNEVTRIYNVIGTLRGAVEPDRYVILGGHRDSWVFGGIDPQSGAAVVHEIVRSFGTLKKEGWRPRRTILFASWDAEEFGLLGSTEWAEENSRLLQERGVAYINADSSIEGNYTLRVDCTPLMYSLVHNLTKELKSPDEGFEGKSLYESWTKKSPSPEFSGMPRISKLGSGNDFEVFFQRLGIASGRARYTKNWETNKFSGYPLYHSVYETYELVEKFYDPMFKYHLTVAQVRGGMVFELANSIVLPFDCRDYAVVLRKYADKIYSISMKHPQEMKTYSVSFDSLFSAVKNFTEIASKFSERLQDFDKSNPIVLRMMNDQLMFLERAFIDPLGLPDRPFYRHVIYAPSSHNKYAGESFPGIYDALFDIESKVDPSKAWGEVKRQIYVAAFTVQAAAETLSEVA

SMILES | Biodistribution, Adrenal (Avg) (LNCaP xenograft) [% ID/g] | Biodistribution, Blood (Avg) (LNCaP xenograft) [% ID/g] | Biodistribution, Bone (Avg) (LNCaP xenograft) [% ID/g] | Biodistribution, Brain (Avg) (LNCaP xenograft) [% ID/g] | Biodistribution, Fat (Avg) (LNCaP xenograft) [% ID/g] | Biodistribution, Heart (Avg) (LNCaP xenograft) [% ID/g] | Biodistribution, Intestine (Avg) (LNCaP xenograft) [% ID/g] | Biodistribution, Kidney (Avg) (LNCaP xenograft) [% ID/g] | Biodistribution, LNCaP tumor (Avg) (LNCaP xenograft) [% ID/g] | Biodistribution, Liver (Avg) (LNCaP xenograft) [% ID/g] | Biodistribution, Lungs (Avg) (LNCaP xenograft) [% ID/g] | Biodistribution, Muscle (Avg) (LNCaP xenograft) [% ID/g] | Biodistribution, Pancreas (Avg) (LNCaP xenograft) [% ID/g] | Biodistribution, Salivary gland (Avg) (LNCaP xenograft) [% ID/g] | Biodistribution, Seminal (Avg) (LNCaP xenograft) [% ID/g] | Biodistribution, Spleen (Avg) (LNCaP xenograft) [% ID/g] | Biodistribution, Stomach (Avg) (LNCaP xenograft) [% ID/g] | Biodistribution, Testes (Avg) (LNCaP xenograft) [% ID/g] | Biodistribution, Thyroid (Avg) (LNCaP xenograft) [% ID/g] | Biodistribution, Urine (Avg) (LNCaP xenograft) [% ID/g] | other results
O=C(O)CCC[C@@H](OC(=O)N[C@@H](CCCCNC(=O)[C@H](Cc1c2ccccc2cc2ccccc12)NC(=O)[C@H]1CC[C@H](CNC(=O)CCc2ccc(O)c(CN(CCN(CC(=O)O)Cc3cc(CCC(=O)O)ccc3O)CC(=O)O)c2)CC1)C(=O)O)C(=O)O [AR-2-113-2, HBED-CC-PSMA-Aad-carbamate] |  |  |  |  |  |  |  |  |  |  |  |  |  |  |  |  |  |  |  |  | Ki (PSMA): 56.3 nM
O=C(O)CCC[C@H](NC(=O)N[C@@H](CCCONC(=O)[C@H](Cc1c2ccccc2cc2ccccc12)NC(=O)C1CCC(CNC(=O)CN2CCN(CC(=O)O)CCN(CC(=O)O)CCN(CC(=O)O)CC2)CC1)C(=O)O)C(=O)O (some centres unmarked) [CCZ02018] |  |  |  |  |  |  |  |  |  |  |  |  |  |  |  |  |  |  |  |  | Ki (PSMA): 1.61 ± 0.04 nM
O=C(O)CCC[C@H](NC(=O)N[C@@H](CCCCCNC(=O)[C@H](Cc1c2ccccc2cc2ccccc12)NC(=O)C1CCC(CNC(=O)CN2CCN(CC(=O)O)CCN(CC(=O)O)CCN(CC(=O)O)CC2)CC1)C(=O)O)C(=O)O (some centres unmarked) [CCZ02010] |  |  |  |  |  |  |  |  |  |  |  |  |  |  |  |  |  |  |  |  | Ki (PSMA): 17 nM
O=C(O)CSCC(NC(=O)NC(Cc1ccc(NC(=O)C(Cc2c3ccccc3cc3ccccc23)NC(=O)C2CCC(CNC(=O)CN3CCN(CC(=O)O)CCN(CC(=O)O)CCN(CC(=O)O)CC3)CC2)cc1)C(=O)O)C(=O)O.[68Ga] (centres unmarked) [^68Ga-CCZ01188] | 0.98 | 3.91 | 0.23 | 0.07 | 0.62 | 1.03 | 0.56 | 4.02 | 1.43 | 0.81 | 2.15 | 0.41 | 0.38 | 1.56 | 0.85 | 0.61 | 0.19 | 0.82 | 0.67 | 367.12 | 
O=C(O)CCCC(NC(=O)NC(CCCONC(=O)C(Cc1c2ccccc2cc2ccccc12)NC(=O)C1CCC(CNC(=O)CN2CCN(CC(=O)O)CCN(CC(=O)O)CCN(CC(=O)O)CC2)CC1)C(=O)O)C(=O)O.[68Ga] (centres unmarked) [^68Ga-CCZ02018] | 0.53 | 0.67 | 0.13 | 0.03 | 0.17 | 0.18 | 0.25 | 6.91 | 18.88 | 0.21 | 0.58 | 0.10 | 0.13 | 0.22 | 0.27 | 0.24 | 0.07 | 0.22 | 0.20 | 613.72 | 
O=C(O)CCC[C@H](OC(=O)N[C@@H](CCCCNC(=O)[C@H](Cc1c2ccccc2cc2ccccc12)NC(=O)[C@H]1CC[C@H](CNC(=O)CCc2ccc(O)c(CN(CCN(CC(=O)O)Cc3cc(CCC(=O)O)ccc3O)CC(=O)O)c2)CC1)C(=O)O)C(=O)O.[68Ga] [^68Ga-AR-113-1] | 1.22 | 2.42 | 0.34 | 0.05 | 0.56 | 0.85 | 1.36 | 27.16 | 11.86 | 1.31 | 1.93 | 0.49 | 0.34 | 1.05 |  | 0.61 | 0.22 | 0.79 |  | 237.55 | Biodistribution, Lacrimal (Avg) (LNCaP xenograft): 0.13 % ID/g
O=C(O)CCCC(NC(=O)NC(CNC(=O)CNC(=O)C(Cc1c2ccccc2cc2ccccc12)NC(=O)C1CCC(CNC(=O)CN2CCN(CC(=O)O)CCN(CC(=O)O)CCN(CC(=O)O)CC2)CC1)C(=O)O)C(=O)O.[68Ga] (centres unmarked) [68Ga-CCZ01198] | 0.19 | 0.43 | 0.07 | 0.01 | 0.07 | 0.11 | 0.16 | 2.18 | 4.84 | 0.15 | 0.32 | 0.07 | 0.08 | 0.12 | 0.47 | 0.12 | 0.03 | 0.14 | 0.13 | 384.68 | 
O=C(O)CCCC(NC(=O)NC(COCCNC(=O)C(Cc1c2ccccc2cc2ccccc12)NC(=O)C1CCC(CNC(=O)CN2CCN(CC(=O)O)CCN(CC(=O)O)CCN(CC(=O)O)CC2)CC1)C(=O)O)C(=O)O.[68Ga] (centres unmarked) [^68Ga-CCZ02011] | 0.36 | 0.58 | 0.15 | 0.02 | 0.12 | 0.18 | 0.40 | 4.10 | 14.08 | 0.27 | 0.43 | 0.15 | 0.22 | 0.27 | 11.24 | 0.23 | 0.07 | 0.51 | 0.16 | 343.93 | Biodistribution, Lacrimal (Avg) (LNCaP xenograft): 0.33 % ID/g
O=C(O)CSCC(NC(=O)NC(Cc1cn(CCNC(=O)C(Cc2c3ccccc3cc3ccccc23)NC(=O)C2CCC(CNC(=O)CN3CCN(CC(=O)O)CCN(CC(=O)O)CCN(CC(=O)O)CC3)CC2)nn1)C(=O)O)C(=O)O.[68Ga] (centres unmarked) [^68Ga-CCZ01186] | 0.29 | 0.72 | 0.13 | 0.02 | 0.16 | 0.57 | 0.08 | 2.20 | 0.89 | 0.23 | 0.21 | 0.23 | 0.16 | 0.40 | 6.65 | 0.34 | 0.14 | 0.17 | 2.49 | 439.81 | 
O=C(O)CSCC(NC(=O)NC(CNC(=O)CNC(=O)C(Cc1c2ccccc2cc2ccccc12)NC(=O)C1CCC(CNC(=O)CN2CCN(CC(=O)O)CCN(CC(=O)O)CCN(CC(=O)O)CC2)CC1)C(=O)O)C(=O)O.[68Ga] (centres unmarked) [68Ga-CCZ01194] | 0.65 | 0.98 | 0.14 | 0.03 | 0.27 | 0.27 | 0.79 | 7.33 | 9.12 | 0.35 | 0.70 | 0.14 | 0.15 | 0.34 | 0.13 | 0.24 | 0.09 | 0.23 | 0.29 | 311.63 | 
